In publication PMC5725832, “Evaluation of the effect of D-amino acid incorporation into amyloid-reactive peptides” (Journal of Translational Medicine, 2017):

Experiments:
[1] = Circular dichroism, heparin-induced coil-to-helix transition (ellipticity at 222 nm); format: physicochemical; conditions: CD, peptide 0.05 mg/mL, 2.9 mL sample, 1 cm path; titration of low molecular weight heparin (enoxaparin) up to 1.5 mg; data collected in triplicate
Method: CD spectra were obtained for all peptides (0.05 mg/mL in PBS) using a DSM 1000 CD instrument (Olis Inc., Bogart, Georgia) with a peptide sample volume of 2.9 mL and a 1 cm cuvette path length. Data were collected in triplicate over the 190–250 nm wavelength range with 1 nm increments. Increasing amounts of low molecular weight heparin (Enoxaparin sodium, Sanofi, Bridgewater, NJ) up to 1.5 mg was added to each peptide to induce secondary structure transitions. All data were corrected for background by subtraction of a PBS or PBS with enoxaparin CD spectrum. Mean residue ellipticity [Θ] was calculated according to: Θ *(MW/no. AA)/(10 *conc. *l) where: Θ is ellipticity (millidegrees); MW is the molecular weight of the peptide (3356.8 Da); no. AA, is the number of amino acid residues, (31); conc. is the peptide concentration (mg/mL), and l, is the cuvette path length (cm).

[2] = mouse, in vivo, iv
Method: Peptides (20–40 μg) were radiolabeled with iodine-125 (^125I; Perkin Elmer, Waltham, MA) as previously described. Briefly, ~ 2 mCi of ^125I in buffered sodium phosphate pH 7.6 was mixed with peptide and 20 μg chloramine T in a volume of 10 µL water for 1 min. The reaction was quenched using 20 μg sodium metabisulphite in 10 µL water. Radiolabeled product was separated from free isotope by gel filtration chromatography using a Sephadex G-25 size-exclusion matrix (PD10; GE Healthcare) equilibrated with 0.1% gelatin/PBS. Fractions were collected manually and radioactivity in each measured by gamma counting after which the peak fractions were pooled. Radiochemical purity was assessed qualitatively by estimating the free radioiodide from phosphor images (Cyclone Storage Phosphor System, PerkinElmer, Shelton, CT) of SDS-PAGE gels. SPECT/CT imaging was performed as described previously. […] Low energy (^125I; 25–45 keV) gamma photons were detected at each of 60, 16-s projections with 90 mm of bed travel in 1.5 revolutions. […] A small piece of each tissue was weighed in tared vials and radioactivity quantified using an automated gamma counter (1480 Wizard 3 Gamma Counter, Perkin Elmer). The tissue radioactivity data were expressed as % injected dose per gram of tissue (%ID/g). […]

Substance: aqaYS KAQKAQAKQAKQAQKAQKAQAKQAKQ [^aqap5, 31-residue p5 variant with three D-amino acids at the N-terminus; tested 125I-labeled in vivo]
- half maximal value of the heparin-mediated transition in mean residue ellipticity at 222 nm [1]: 0.33 mg
- radioactivity in the kidneys [2]: ~ 39 %ID/g
